Laboratory results taken from patent US5623050A, “Stable polypeptides having c-AMP production enhancing activity and the use thereof” (Takeda Chemical Industries, Ltd., priority 1991, dated 1997).

Test: Oxidized product content by HPLC on storage
Format: physicochemical
Description: In order to clarify that the polypeptides of the present invention are not easily oxidized, oxidized product content (%) of Arg^17 -PACAP27 obtained in Example 1 below were assayed when stored both in lyophylization and in aqueous acetic acid. The assay of the oxidized product content (%) were conducted on High Performance Liquid Chromatography (HPLC). Conditions of HPLC are as follows:
Solution A 0.1% aqueous trifluoroacetic acid
Solution B acetonitrile containing 0.1% trifluoroacetic acid
A linear gradient elution from solution A to solution
Elution time of Arg^17 -PACAP27:19.9 min

CC[C@H](C)[C@H](NC(=O)CNC(=O)[C@H](CC(=O)O)NC(=O)[C@H](CO)NC(=O)[C@@H](N)Cc1c[nH]cn1)C(=O)N[C@@H](Cc1ccccc1)C(=O)N[C@H](C(=O)N[C@@H](CC(=O)O)C(=O)N[C@@H](CO)C(=O)N[C@@H](Cc1ccc(O)cc1)C(=O)N[C@@H](CO)C(=O)N[C@@H](CCCNC(=N)N)C(=O)N[C@@H](Cc1ccc(O)cc1)C(=O)N[C@@H](CCCNC(=N)N)C(=O)N[C@@H](CCCCN)C(=O)N[C@@H](CCC(N)=O)C(=O)N[C@@H](CCCNC(=N)N)C(=O)N[C@@H](C)C(=O)N[C@H](C(=O)N[C@@H](CCCCN)C(=O)N[C@@H](CCCCN)C(=O)N[C@@H](Cc1ccc(O)cc1)C(=O)N[C@@H](CC(C)C)C(=O)N[C@@H](C)C(=O)N[C@@H](C)C(=O)N[C@H](C(=O)N[C@@H](CC(C)C)C(N)=O)C(C)C)C(C)C)[C@@H](C)O [Arg^17 -PACAP27]
0%: Oxidized product (%) just after synthesizing (just after synthesizing) | Oxidized product (%) aqueous acetic acid (stored in aqueous acetic acid) | Oxidized product (%) lyophilization store (stored in lyophilization)
